Experimental data reported in paper PMC5320730, “Synthetic curcumin derivative DK1 possessed G2/M arrest and induced apoptosis through accumulation of intracellular ROS in MCF-7 breast cancer cells” (Cancer Cell International, 2017).

What was measured:
MCF-7 cells [1] = test: Flow cytometry AnnexinV-FITC/PI apoptosis analysis; format: cell-based, human; conditions: MCF-7, 25 µM, 72 h, AnnexinV/PI
Method: Apoptosis of DK1 treated MCF-7 was compared with the control cell by Flow cytometry AnnexinV-FITC/PI apoptosis assay. Briefly, harvested cells were resuspended in 100 μL of 1× binding buffer and stained with 5 μL each of AnnexinV-FITC and propidiumiodide. After 15 min of incubation, the cells were added with 400 μL of 1× binding buffer and subjected to BD FACS Calibur flow cytometer analysis using BD Cell Quest Pro software (Becton–Dickinson, USA).

[2] = tested on: active caspase 9 in MCF-7 cells; test: Active caspase 9 staining (CaspGLOW), fluorometry; format: cell-based, human; conditions: MCF-7, 25 µM
Method: (§1) The level of active caspase 9 and cytochrome c of the control and DK1 treated MCF-7 were quantified using CaspGLOW Red Active Caspase-9 staining kit (BioVision, USA) and human cytochrome c platinum ELISA (eBioscience Affymetrix, USA), respectively according to manufacturers’ protocol. Fold change of caspase 9 and cytochrome c was calculated by dividing fluorescence intensity or absorbance of DK1 treated MCF-7 with untreated control MCF-7.

HepG2 cells = test: MTT cell viability assay, HepG2; format: cell-based; conditions: Homo sapiens
Method: (§2) Promyelocytic leukemia HL60, hepatoblastoma HepG2, breast cancer MCF-7 and MDA-MB-231 cells were purchased from ATCC (USA) and cultured in RPMI-1640 media (Sigma, USA), supplemented with 10% fetal bovine serum (FBS) (PAA, USA). Normal epithelial MCF-10A cells (ATCC, USA) was maintain in DMEM-F12 (Sigma, USA) supplemented with hydrocortisone (0.5 μg/mL), insulin (10 μg/mL), human epidermal growth factor (hEGF) (20 ng/mL) (Sigma, USA) and 10% FBS (PAA, USA).
(§3) MTT cell viability assay was used to evaluate the effect of DK1 on viability of HL-60, HepG2, MCF-7, MDA-MB-231 and MCF-10A cells. Briefly, each type of cells (8 × 10^4cells/well) was seeded in 96-well plate in 37 °C CO2 incubator overnight. Then, DK1 was added at concentration ranging between 200 and 3.125 µM by twofold serial dilution. Untreated control was prepared simultaneously. After that, the cells were incubated for 24, 48 and 72 h at 37 °C in 5% CO2 incubator. After the incubation period, all well was added with 20 μL of MTT solution (5 mg/mL) and further incubated for 3 h. Subsequently, 170 μL of supernatant from each well was discarded, 100 μL of dimethyl sulfoxide (DMSO) was added to solubilize the purple formazan crystal and the absorbance was measured at a wavelength of 570 nm by Enzyme-linked immunosorbent assay (ELISA) plate reader (Bio-tek instruments, USA). All cell lines were assayed for three biological replicates each with triplicates. Percentage of cell viability was calculated using the following formula: Cell viability%=OD sample/OD control×100%
(§4) IC50 value (concentration of DK1 that reduce 50% of cell viability compared to control cell) was determined from the graph of cell viability (%) vs DK1 concentration. Subsequently, selective index, which indicating selectivity of DK1 against cancerous and normal breast cell lines, was calculated by: Selective indexSI=IC50of DK1on normal MCF-10A cell line/IC50on breast cancerous cell lineHL60/HepG2/MCF-7/MDA-MB-231

MCF-7 cells [3] = test: MTT cell viability assay, MCF-7; format: cell-based, human; conditions: for IC50: Homo sapiens, MCF7, MCF-7, MTT
Method: as §2, §3, §4

MDA-MB-231 cells = test: MTT cell viability assay, MDA-MB-231; format: cell-based, human; conditions: for IC50: Homo sapiens, MDA-MB-231, MTT
Method: as §2, §3, §4

ROS in MCF-7 cells = test: Intracellular reactive oxygen species (ROS) detection, DCFH-DA; format: cell-based, human; conditions: MCF-7, 25 µM
Method: (§5) Harvested cell was subjected to two times of freeze and thaw in 100 μL of PBS. The lysed cell was then pelleted and the supernatant was subjected to GSH and ROS quantification using Glutathione assay kit (Sigma, USA) and OxiSelect ROS assay kit (Cell Biolabs, USA) according to manufacturers’ protocol.
(§6) For GSH quantification, 10 μL of cell lysate supernatant was added with 150 μL of working solution (1.5 mg/mL DTNB solution, 6 units/mL glutathione reductase and 1× assay buffer), incubated for 5 min and added with 50 μL of NADPH solution (0.16 mg/mL). The absorbance was read at a wavelength of 412 nm by ELISA plate reader (Bio-Tek instrument, USA) for every minute in duration of 5 min. For intracellular ROS quantification, supernatant was added with 10 μM DCFH-DA for 30 min at 37 °C. Then, the fluorescence intensity of DCFH-DA was measured using microplate fluorometer (Thermo Scientific, USA) with a 485/538 nm filter. Fold change of GSH and ROS was calculated by dividing absorbance or fluorescence intensity of DK1 treated MCF-7 with untreated control MCF-7.

GSH in MCF-7 cells = test: Intracellular glutathione (GSH) quantification; format: cell-based, human; conditions: MCF-7, 25 µM
Method: as §5, §6

[4] = tested on: CDC2 and phospho-CDC2 (Tyr15) in MCF-7 cells; test: Western blot analysis of CDC2 and p-CDC2 (Tyr15); format: cell-based, human; conditions: MCF-7, 25 µM, 48 and 72 h
Method: (§7) Total protein was extracted from harvested cell with Radioimmunoprecipitation assay (RIPA) buffer supplemented with phosphatase inhibitor cocktail (Roche, Canada) and the concentration was quantified by Bradford assay (Sigma, USA). Then, 100 μg of extracted protein was subjected to sodium dodecyl sulfate polyacrylamide gel electrophoresis (SDS-PAGE) (Bio-Rad, USA), transferred to nitrocellulose membrane, block with 0.5% skimmed milk overnight, washed with Tris-buffered saline tween (TBST) buffer and incubated with primary antibodies (anti-CDC2, anti-pCDC2 (Tyr15), anti-p53, and anti-β-actin at a dilution of 1:1000 (Abcam, USA) for 1 h. After that, membranes were washed, incubated with 1:5000 diluted goat anti-rabbit IgG H&L conjugated to […] (Abcam, USA) and developed under chemiluminescence condition (Super Signal West Pico, Pierce, USA) using the ChemiDoc XRS (Bio-Rad, USA). Differential level of evaluated protein in control and DK1 treated MCF-7 was calculated based on the bands intensity analyzed using the Quantity One 1D Analysis software (Bio-rad, USA).

[5] = tested on: PLK1, p21 and WEE-1 expression in MCF-7 cells; test: qRT-PCR of cell cycle related genes; conditions: MCF-7, 25 µM, qRT-PCR, p < 0.05
MCF-7 cells [6] = test: Fluorescent microscopy with acridine orange/propidium iodide staining, count of 200 cells; format: cell-based, human; conditions: MCF-7, 25 µM, 72 h, AO/PI, scoring of 200 cells
Method: Prior to harvest the cell, morphology of control and DK1 treated MCF-7 was observed using light microscope. In addition, harvested control and treated MCF-7 cells were resuspended in 100 μL of Phosphate buffer saline (PBS), stained with 10 μg/mL of Acridine orange (AO) and propidium iodide (PI) and viewed under fluorescent microscope (Nikon, Japan).

MCF-7 cells [7] = test: Flow cytometry cell cycle analysis (PI); format: cell-based, human; conditions: MCF-7, 25 µM
Method: Cell cycle progression of control and DK1 treated MCF-7 was analysed using BD FACS Calibur flow cytometer (Becton–Dickinson, USA). Briefly, harvested cells were added with 250 μL of trypsin buffer with 10 min incubation, followed by 200 μL of trypsin inhibitor with RNase buffer with 10 min incubation, and finally stained with 200 μL of propidium iodide (PI) from BD Cycletest Plus kit (Becton–Dickinson, USA). All stained cells were subjected to BD FACS Calibur flow cytometer analysis using BD Cell Quest Pro software (Becton–Dickinson, USA).

p53 in MCF-7 cells = test: Western blot analysis of p53; format: cell-based, human; conditions: MCF-7, 25 µM, western blot
Method: as §7

[8] = tested on: cytochrome c in MCF-7 cells; test: Cytochrome c ELISA; format: cell-based, human; conditions: MCF-7, 25 µM
Method: as §1

MCF-10A cells = test: MTT cell viability assay, normal MCF-10A; format: cell-based; conditions: Homo sapiens
Method: as §2, §3, §4

HL-60 cells = test: MTT cell viability assay, HL-60; format: cell-based; conditions: Homo sapiens, HL-60, MTT
Method: as §2, §3, §4

MCF-7 cells [9] = conditions: on MCF-7; cited from earlier work

SMILES: O=C(/C=C(\O)c1ccccc1)c1ccccc1O [DK1, (Z)-3-hydroxy-1-(2-hydroxyphenyl)-3-phenylprop-2-en-1-one]
- early apoptosis (MCF-7 cells [1]): ~ 14%
- late apoptosis (MCF-7 cells [1]): ~ 39%
- promotion of active caspase 9 compared to control ([2]; 48 h): ~ 1.9 fold
- promotion of active caspase 9 compared to control ([2]; 72 h): ~ 2.4 fold
- IC50 (HepG2 cells; 24 h): > 150 µM
- IC50 (HepG2 cells; 48 h): 138 ± 4.13 µM
- IC50 (HepG2 cells; 72 h): 64.2 ± 3.12 µM
- IC50 (MCF-7 cells [3]; 24 h): 96.8 ± 4.87 µM
- IC50 (MCF-7 cells [3]; 48 h): 33.3 ± 3.5 µM
- IC50 (MCF-7 cells [3]; 72 h): 25 ± 3.71 µM
- Selective index of MCF-10A/MCF-7 (MCF-7 cells [3]; IC50 MCF-10A / IC50 MCF-7, 24 h): >2.17
- Selective index of MCF-10A/MCF-7 (MCF-7 cells [3]; IC50 MCF-10A / IC50 MCF-7, 48 h): 3.75
- Selective index of MCF-10A/MCF-7 (MCF-7 cells [3]; IC50 MCF-10A / IC50 MCF-7, 72 h): 4.17
- SI values (MCF-7 cells [3]; MCF-7, overall statement): higher than 2
- IC50 (MDA-MB-231 cells; 24 h): 104 ± 5.23 µM
- IC50 (MDA-MB-231 cells; 48 h): 45.8 ± 4.66 µM
- IC50 (MDA-MB-231 cells; 72 h): 37.5 ± 4.82 µM
- Selective index of MCF-10A/MDA (MDA-MB-231 cells; IC50 MCF-10A / IC50 MDA-MB-231, 24 h): >2.00
- Selective index of MCF-10A/MDA (MDA-MB-231 cells; IC50 MCF-10A / IC50 MDA-MB-231, 48 h): 2.72
- Selective index of MCF-10A/MDA (MDA-MB-231 cells; IC50 MCF-10A / IC50 MDA-MB-231, 72 h): 2.77
- SI values (MDA-MB-231 cells; MDA-MB-231, overall statement): higher than 2
- generation of ROS compared to control (ROS in MCF-7 cells; 48 h): ~ 1.9 fold
- generation of ROS compared to control (ROS in MCF-7 cells; 72 h): ~ 2.6 fold
- reduction of GSH level compared to control (GSH in MCF-7 cells; 48 h): ~ 2.2 fold
- reduction of GSH level compared to control (GSH in MCF-7 cells; 72 h): ~ 3.3 fold
- CDC2 protein level [4]: reduction
- phospho-CDC2 (Tyr15) protein level [4]: accumulation
- expression of PLK1 compared to control [5]: downregulated
- expression of WEE-1 compared to control [5]: enhanced
- expression of p21 compared to control [5]: enhanced
- cells undergone apoptosis (MCF-7 cells [6]): ~ 12.5%
- cells undergone late apoptosis/necrosis (MCF-7 cells [6]): ~ 31%
- percentage of cell population in G2/M phase (MCF-7 cells [7]; 24 h (control ~18%)): ~ 25%
- percentage of cell population in G2/M phase (MCF-7 cells [7]; 48 h (control ~18%)): ~ 26%
- percentage of cell population in G2/M phase (MCF-7 cells [7]; 72 h (control ~18%)): ~ 31%
- promotion of p53 protein compared to control (p53 in MCF-7 cells; 48 h): ~ 1.6 fold
- promotion of p53 protein compared to control (p53 in MCF-7 cells; 72 h): ~ 2.0 fold
- promotion of cytochrome c compared to control ([8]; 48 h): ~ 2.1 fold
- promotion of cytochrome c compared to control ([8]; 72 h): ~ 2.8 fold
- IC50 (MCF-10A cells; 24 h): > 208 µM
- IC50 (MCF-10A cells; 48 h): 126 ± 3.67 µM
- IC50 (MCF-10A cells; 72 h): 104 ± 5.21 µM
- IC50 (HL-60 cells; 24 h): 138 ± 2.16 µM
- IC50 (HL-60 cells; 48 h): 124 ± 3.27 µM
- IC50 (HL-60 cells; 72 h): 73.4 ± 2.65 µM

SMILES: COc1ccc(/C=C/C(=O)c2c(O)cc(OC)cc2OC)cc1 [flavokawain A]
- SI value (MCF-7 cells [9]): 3.78
